Reference: patent EP0450097B1, “BENZOHETEROCYCLIC COMPOUNDS” (OTSUKA PHARMACEUTICAL CO., LTD., priority 1989, dated 1991)

Experiments:
[1] = target: T1, V₁ receptor (Rattus norvegicus, UniProt P30560); experiment: V₁ receptor binding assay ([³H]-Arg-vasopressin, rat liver plasma membrane preparations); conditions: 37°C for 10 minutes
T1 construct: Using rat liver plasma membrane preparations; from tissue; host or cells: rat liver plasma membranes
Experimental: Using rat liver plasma membrane preparations prepared according to Ichihara's method [cf: Akira Ichihara, J. Bio. Chem., 258, 9283 (1983)], the plasma membrane (50000dpm, 2x10⁻¹⁰ M) of [³H]-Arg-vasopressin and a test compound (60 µg, 10⁻⁸-10⁻⁴ M) are incubated at 37°C for 10 minutes in 100 mM Tris-HCl buffer (pH: 8.0, 250 µl) containing 5 mM MgCl₂, 1 mM EDTA and 0.1 % BSA. After incubation, the mixture is filtered three times using the glass filter (GF/F) so as to separate the membrane preparation combined with vasopressin and then washed with the buffer (5 ml). This glass filter is taken out and mixed with liquid scintillation cocktail. The amount of [³H]-vasopressin combined with the membrane is measured by liquid scintillation counter and the rate of the inhibitory effect of the test compound is estimated according to the following equation. Rate of the inhibitory effect (%) = 100 -(C1 - B1)/(C0 - B1)X 100 [formula] C¹: The amount of [³H]-vasopressin combined with the membrane in the presence of the test compound (in prescribed amount). C⁰: The amount of [³H]-vasopressin combined with the membrane in the absence of the test compound. B¹: The amount of [³H]-vasopressin combined with the membrane in the presence of the excess amount of vasopressin (10⁻⁶ M).
(§1) The results are expressed as IC₅₀ values, which is the concentration of the test compound required to achieve the inhibitory effect in the rate of 50 %.

[2] = target: T2, V₂ receptor (Rattus norvegicus, UniProt Q00788); experiment: V₂ receptor binding assay ([³H]-Arg-vasopressin, rat kidney plasma membrane preparations); conditions: 4°C for 3 hours
T2 construct: Using rat kidney plasma membrane preparations; from tissue; host or cells: rat kidney plasma membranes
Experimental: Using rat kidney plasma membrane preparations prepared according to O. Hechter's method [cf: J. Bio. […] After incubation, the mixture is filtered using the glass filter (GF/F) so as to separate the membrane preparation combined with vasopressin and then washed twice with the buffer (5 ml). This glass filter is taken out and mixed with liquid scintillation cocktail. The amount of [³H]-vasopressin combined with the membrane is measured by liquid scintillation counter and the rate of the inhibitory effect of the test compound is estimated according to the following equation. Rate of the inhibitory effect (%) = 100 -(C1 - B1)/(C0 - B1)X 100 [formula] C¹: The amount of [³H]-vasopressin combined with the membrane in the presence of the test compound (in prescribed amount). C⁰: The amount of [³H)-vasopressin combined with the membrane in the absence of the test compound. B¹: The amount of [³H]-vasopressin combined with the membrane in the presence of the excess amount of vasopressin (10⁻⁶ M).
as §1

T2 sequence (Q00788 whole entry): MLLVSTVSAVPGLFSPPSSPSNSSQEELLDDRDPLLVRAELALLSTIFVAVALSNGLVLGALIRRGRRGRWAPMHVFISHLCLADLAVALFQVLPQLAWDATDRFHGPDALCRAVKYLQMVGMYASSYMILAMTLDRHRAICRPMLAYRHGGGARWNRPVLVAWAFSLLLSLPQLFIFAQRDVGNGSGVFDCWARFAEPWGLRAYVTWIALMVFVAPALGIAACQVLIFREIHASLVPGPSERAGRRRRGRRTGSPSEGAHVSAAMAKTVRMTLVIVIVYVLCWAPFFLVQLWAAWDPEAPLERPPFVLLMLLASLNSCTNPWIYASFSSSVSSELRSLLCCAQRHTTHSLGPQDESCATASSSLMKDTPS
T1 sequence (P30560 whole entry): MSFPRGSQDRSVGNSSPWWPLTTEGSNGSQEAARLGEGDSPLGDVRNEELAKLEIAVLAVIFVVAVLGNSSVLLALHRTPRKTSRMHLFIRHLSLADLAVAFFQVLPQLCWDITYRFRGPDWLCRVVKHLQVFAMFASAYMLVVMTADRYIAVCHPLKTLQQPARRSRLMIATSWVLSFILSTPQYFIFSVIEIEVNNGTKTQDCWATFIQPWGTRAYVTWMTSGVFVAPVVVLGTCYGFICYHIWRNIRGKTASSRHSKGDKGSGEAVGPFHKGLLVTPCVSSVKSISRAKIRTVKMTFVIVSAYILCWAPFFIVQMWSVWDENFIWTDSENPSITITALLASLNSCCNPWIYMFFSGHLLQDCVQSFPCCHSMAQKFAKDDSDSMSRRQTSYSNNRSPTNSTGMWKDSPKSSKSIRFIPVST

Structure (SMILES)	IC50 [1] [nM]	IC50 [2] [nM]
Cc1ccccc1C(=O)Nc1ccc(C(=O)N2CCCC(OCC(=O)N3CCS(=O)(=O)CC3)c3ccccc32)cc1 (centres unmarked) [compound 286]	400	19
Cc1ccccc1C(=O)Nc1ccc(C(=O)N2CCCC(OCCCCN(C)C)c3ccccc32)cc1 (centres unmarked) [compound 161]	140	9
CC(=O)OCC1CCCN(C(=O)c2ccc(NC(=O)c3ccccc3C)cc2)c2ccccc21 (centres unmarked) [compound 231]	160	7
Cc1ccccc1C(=O)Nc1ccc(C(=O)N2CCCC(N(C)C)c3cc(Cl)ccc32)cc1 (centres unmarked) [compound 303]	190	25
Cc1ccccc1C(=O)Nc1ccc(C(=O)N2CCCCc3ccccc32)cc1 [compound 28]	56	18
O=C(Nc1ccc(C(=O)N2CCCCc3ccccc32)cc1)c1cccc(C(F)(F)F)c1 [compound 58]	400	140
Cc1ccccc1C(=O)Nc1ccc(C(=O)N2CCCC(OCC(=O)N3CC[S+]([O-])CC3)c3ccccc32)cc1 (centres unmarked) [compound 281]	180	11
Cc1cc(C(=O)N2CCCCc3ccccc32)ccc1NC(=O)c1ccccc1C [compound 78]	100	84
Cc1ccccc1C(=O)Nc1ccc(C(=O)N2CCCC(CN)c3ccccc32)cc1 (centres unmarked) [compound 244]	230	18
C=C1CCCN(C(=O)c2ccc(NC(=O)c3ccccc3C)cc2)c2ccccc21 [compound 209]	74	4
CCOc1cccc(C(=O)Nc2ccc(C(=O)N3CCCCc4ccccc43)cc2)c1 [compound 59]	310	240
CCN(CC(=O)Nc1ccc(C(=O)N2CCCC(N(C)C)c3cc(Cl)ccc32)cc1)c1ccccc1 (centres unmarked) [compound 308]	110	23
CN(C)C1CCCN(C(=O)c2ccc(NC(=O)Cc3ccccc3)cc2)c2ccccc21 (centres unmarked) [compound 305]		38
CC(C)(C)CC(=O)Nc1ccc(C(=O)N2CCCc3ccccc32)cc1 [compound 11]		1050
CCN(CC)CCOc1cc(C(=O)N2CCCC(N(C)C)c3ccccc32)ccc1NC(=O)c1ccccc1C (centres unmarked) [compound 294]		330
NC1CCCN(C(=O)c2ccc(NC(=O)c3ccccc3Cl)cc2)c2ccccc21 (centres unmarked) [compound 253]		52
CN(C)C1CCCN(C(=O)c2ccc(NC(=O)c3cccc(N)c3)cc2)c2ccccc21 (centres unmarked) [compound 292]		180
N#Cc1cccc(C(=O)Nc2ccc(C(=O)N3CCCCc4ccccc43)cc2)c1 [compound 31]		98
COc1ccc(NC(=O)c2ccc(C(=O)N3CCCc4ccccc43)cc2)cc1 [compound 21]		1000

Structure (SMILES)	IC50 [1] [nM]	IC50 [2] [nM]
CN(C)C1CCCN(C(=O)c2ccc(NC(=O)c3ccccc3Cl)c(OC(=O)c3ccccc3Cl)c2)c2ccccc21 (centres unmarked) [compound 189]		87
O=C(NC1CCCCC1)c1ccc(C(=O)N2CCCc3ccccc32)cc1 [compound 25]		1670
Cc1cccc(C(=O)Nc2ccc(C(=O)N3CCN(C)Cc4ccccc43)cc2)c1C [compound 81]		150
NC1Cc2ccccc2N(C(=O)c2ccc(NC(=O)c3cc(Cl)cc(Cl)c3)cc2)C1 (centres unmarked) [compound 98]		450
Cc1ccc(NCC(=O)Nc2ccc(C(=O)N3CCCCc4ccccc43)cc2)cc1 [compound 110]		44
O=C(Nc1ccc(C(=O)N2CCCCCc3ccccc32)cc1)C1CCCCC1 [compound 34]		49
O=C(Nc1ccc(C(=O)N2CCCc3ccccc32)cc1)C1CCCCCC1 [compound 15]		130
Cc1cccc(C(=O)Nc2ccc(C(=O)N3CCCCCc4ccccc43)cc2)c1C [compound 38]		29
CN1CCCN(C(=O)c2ccc(NC(=O)c3cc(Cl)cc(Cl)c3)cc2)c2ccccc21 [compound 89]		35
Cc1cccc(C(=O)Nc2ccc(C(=O)N3CCN(C)c4ccccc43)cc2)c1C [compound 52]		320
Cc1cc(C(=O)N2CCCC(N(C)C)c3ccccc32)ccc1NC(=O)c1ccc(Cl)cc1Cl (centres unmarked) [compound 227]		29
O=C(Nc1ccc(C(=O)N2CCCc3ccccc32)cc1)c1cccc(Cl)c1 [compound 2]		200
O=C(Nc1ccc(C(=O)N2CCCc3ccccc32)cc1)C1CCCCCCC1 [compound 16]		170
O=C(Nc1ccc(C(=O)N2CCCc3ccccc32)cc1)c1cccc2ccccc12 [compound 18]		1000
CN1CC(=O)OC2CCN(C(=O)c3ccc(NC(=O)c4ccccc4Cl)cc3)c3ccccc3C21 (centres unmarked) [compound 251]		94
COc1cccc(C(=O)Nc2ccc(C(=O)N3CCCCCc4ccccc43)cc2)c1 [compound 37]		160
CN(C)C1CCCN(C(=O)c2ccc(NC(=O)c3cc(F)cc(F)c3)cc2)c2ccccc21 (centres unmarked) [compound 230]		20
Cc1ccccc1C(=O)Nc1ccc(C(=O)N2CCCC(NN)c3ccccc32)cc1 (centres unmarked) [compound 282]		380
CNC(=O)NC1CCCN(C(=O)c2ccc(NC(=O)c3ccccc3C)cc2)c2ccccc21 (centres unmarked) [compound 283]		96

Structure (SMILES)	IC50 [1] [nM]	IC50 [2] [nM]
CN(C)C1CCCN(C(=O)c2ccc(NC(=O)COc3ccccc3)cc2)c2ccccc21 (centres unmarked) [compound 319]		58
CCCNC1CCCN(C(=O)c2ccc(NC(=O)c3ccc(Cl)cc3Cl)cc2)c2ccccc21 (centres unmarked) [compound 169]		71
CNC1CCCN(C(=O)c2ccc(NC(=O)c3ccccc3C(F)(F)F)cc2Cl)c2ccccc21 (centres unmarked) [compound 198]		40
O=C(Nc1ccc(C(=O)N2CCCC(=O)c3ccccc32)cc1)c1cc(Cl)cc(Cl)c1 [compound 139]		100
CN1CCCN(C(=O)c2ccc(NC(=O)c3ccccc3)cc2)c2ccccc21 [compound 87]		46
Cc1ccccc1C(=O)Nc1ccc(C(=O)N2CCCC(N(C)C)c3ccccc32)c(F)c1 (centres unmarked) [compound 226]		19
CCOC(=O)NC1CCCN(C(=O)c2ccc(NC(=O)c3ccccc3C)cc2)c2ccccc21 (centres unmarked) [compound 260]		130
CC(C)(COc1ccccc1)NCC(=O)Nc1ccc(C(=O)N2CCCCc3ccccc32)cc1 [compound 106]		440
O=C(Cc1ccccc1)Nc1ccc(C(=O)N2CCCc3ccccc32)cc1 [compound 13]		1020
COc1cccc(C(=O)Nc2ccc(C(=O)N3CC(C)Cc4ccccc43)cc2)c1 (centres unmarked) [compound 47]		200
COc1ccc2c(c1)CCCN2C(=O)c1ccc(NC(=O)c2cc(Cl)cc(Cl)c2)cc1 [compound 95]		89
CN(C)C1CCCN(C(=O)c2ccc(NC(=O)c3ccccc3OCC(N)=O)cc2)c2ccccc21 (centres unmarked) [compound 239]		170
CN(C)C1CCCN(C(=O)c2ccc(NC(=O)c3ccccc3F)cc2)c2ccccc21 (centres unmarked) [compound 212]		35
CC1CCc2ccccc2N1C(=O)c1ccc(NC(=O)c2cc(Cl)cc(Cl)c2)cc1 (centres unmarked) [compound 54]		110
Cc1ccccc1C(=O)Nc1ccc(C(=O)N2CCCC(N(C)C)c3ccccc32)cc1OCc1ccccc1 (centres unmarked) [compound 170]		250
C=CCN(C)C1CCCN(C(=O)c2ccc(NC(=O)c3ccccc3C)cc2Cl)c2ccccc21 (centres unmarked) [compound 190]		82
O=C(Nc1ccc(C(=O)N2CC(CO)Cc3ccccc32)cc1)c1cc(Cl)cc(Cl)c1 (centres unmarked) [compound 96]		39
CNC1CCCN(C(=O)c2ccc(NC(=O)c3cc(Cl)cc(Cl)c3)cc2)c2ccccc21 (centres unmarked) [compound 141]		10
